Reference: paper PMC11539071, “Optimization of Biocatalytic Rhododendrol Production from Biogenic Rhododendrol Glycosides” (ACS Sustainable Chemistry & Engineering, 2024)

Key:
[1] = target: T1, β-glucosidase from almonds; assay: initial rates by HPLC, product inhibition fit; type: biochemical, Prunus dulcis; conditions: competitive; substrate betuloside at saturating level; 0.1 M phosphate buffer pH 6, 40 °C
T1 construct: gene emulsin; native commercial enzyme preparation from almonds (Sigma-Aldrich)
From the text: initial rates by HPLC, product inhibition fit on β-glucosidase from almonds

[2] = test system: T1, β-glucosidase from almonds; assay: initial rates by HPLC of rhododendrol, Michaelis-Menten fit; type: biochemical, Prunus dulcis; conditions: 0.1 M phosphate buffer pH 6, 40 °C; substrate from crude glycoside mixture containing apiosylrhododendrin
From the text: initial rates by HPLC of rhododendrol, Michaelis-Menten fit on β-glucosidase from almonds

Row | Structure (SMILES) | Ki [1] [mM] | Km [2] [mM]
1 | CC(O)CCc1ccc(O)cc1 (racemic) [rhododendrol] | 7.13 ± 2.2 | –
2 | OC[C@H]1OC(O)[C@H](O)[C@@H](O)[C@@H]1O (stereo partly drawn) [glucose] | 65.5 ± 17.2 | –
3 | C[C@H](CCc1ccc(O)cc1)O[C@@H]1O[C@H](CO)[C@@H](O)[C@H](O)[C@H]1O (mixture of isomers) [betuloside] | – | 26.7 ± 3.76
